Measured values published in article PMC10175918 (Communications Biology, 2023).
Read-outs that look alike come from different tables or passages of the source.

Experiments:
Assay in all cases: TGFα-shedding assay-based GPCR screening with chimeric Gα subunit proteins
Type in all cases: cell-based
348 GPCRs [1] = biological target: T1, 348 GPCRs (Homo sapiens, UniProt Q99678); conditions: 10µM, Favipiravir 100μM
T1 construct: expressed in transfected cells; host or cells: HEK293A

348 GPCRs [2] = biological target: T2, 348 GPCRs (Homo sapiens, UniProt Q9GZQ4); conditions: 10µM, Favipiravir 100μM
T2 construct: expressed in transfected cells; host or cells: HEK293A

348 GPCRs [3] = biological target: T3, 348 GPCRs (Homo sapiens, UniProt Q9BXC0); conditions: 10µM, Favipiravir 100μM
T3 construct: expressed in transfected cells; host or cells: HEK293A

348 GPCRs [4] = biological target: T4, 348 GPCRs (Homo sapiens, UniProt Q9H1Y3); conditions: 10µM, Favipiravir 100μM
T4 construct: expressed in transfected cells; host or cells: HEK293A

348 GPCRs [5] = biological target: T5, 348 GPCRs (Homo sapiens, UniProt Q8IZF5)
T5 construct: expressed in transfected cells; host or cells: HEK293A
T5 sequence (Q8IZF5 26-1079): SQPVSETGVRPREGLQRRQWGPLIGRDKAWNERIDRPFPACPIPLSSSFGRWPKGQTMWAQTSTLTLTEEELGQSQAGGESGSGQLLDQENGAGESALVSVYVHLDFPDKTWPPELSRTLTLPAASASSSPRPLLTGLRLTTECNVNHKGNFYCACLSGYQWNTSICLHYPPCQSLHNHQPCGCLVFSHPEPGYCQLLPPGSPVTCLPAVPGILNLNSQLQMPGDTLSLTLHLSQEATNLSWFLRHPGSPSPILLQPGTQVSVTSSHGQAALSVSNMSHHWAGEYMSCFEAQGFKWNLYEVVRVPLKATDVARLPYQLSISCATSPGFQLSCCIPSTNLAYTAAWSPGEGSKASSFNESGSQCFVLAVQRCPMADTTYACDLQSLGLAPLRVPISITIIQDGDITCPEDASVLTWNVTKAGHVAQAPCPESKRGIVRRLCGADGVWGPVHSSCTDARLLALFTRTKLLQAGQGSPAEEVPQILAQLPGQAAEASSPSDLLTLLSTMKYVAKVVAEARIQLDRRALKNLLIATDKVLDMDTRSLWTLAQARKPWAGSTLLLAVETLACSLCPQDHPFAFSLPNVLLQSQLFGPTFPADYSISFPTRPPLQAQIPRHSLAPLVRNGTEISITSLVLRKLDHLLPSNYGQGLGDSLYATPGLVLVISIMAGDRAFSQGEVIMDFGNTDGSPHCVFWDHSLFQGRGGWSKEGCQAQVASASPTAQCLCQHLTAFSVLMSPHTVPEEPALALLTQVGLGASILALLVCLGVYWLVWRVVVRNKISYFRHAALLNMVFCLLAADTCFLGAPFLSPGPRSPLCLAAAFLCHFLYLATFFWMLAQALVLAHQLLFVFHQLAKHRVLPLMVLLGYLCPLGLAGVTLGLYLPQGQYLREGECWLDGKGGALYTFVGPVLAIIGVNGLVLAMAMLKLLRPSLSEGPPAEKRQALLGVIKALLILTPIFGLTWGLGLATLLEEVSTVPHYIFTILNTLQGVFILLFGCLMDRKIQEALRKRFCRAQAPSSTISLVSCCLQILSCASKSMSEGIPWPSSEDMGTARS

348 GPCRs [6] = biological target: T6, 348 GPCRs (Homo sapiens, UniProt P51686); conditions: 10µM, Favipiravir 100μM
T6 construct: expressed in transfected cells; host or cells: HEK293A
T6 sequence (P51686 1-369): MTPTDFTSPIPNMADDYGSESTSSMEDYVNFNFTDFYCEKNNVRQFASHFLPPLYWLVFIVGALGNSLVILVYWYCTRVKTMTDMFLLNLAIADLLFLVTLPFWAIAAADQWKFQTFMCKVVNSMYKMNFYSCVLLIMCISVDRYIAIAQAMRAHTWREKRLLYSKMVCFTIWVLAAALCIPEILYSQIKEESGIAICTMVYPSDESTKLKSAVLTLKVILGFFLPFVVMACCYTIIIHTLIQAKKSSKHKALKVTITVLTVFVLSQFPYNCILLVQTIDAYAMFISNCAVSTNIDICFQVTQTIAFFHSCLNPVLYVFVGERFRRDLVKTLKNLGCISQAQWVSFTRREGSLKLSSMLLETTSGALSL

348 GPCRs [7] = biological target: 348 GPCRs (Homo sapiens, UniProt P07550); conditions: 10µM, Favipiravir 100μM
348 GPCRs [8] = biological target: T7, 348 GPCRs (Homo sapiens, UniProt P08588)
T7 construct: expressed in transfected cells; host or cells: HEK293A

348 GPCRs [9] = biological target: T8, 348 GPCRs (Homo sapiens, UniProt Q8IZF7)
T8 construct: expressed in transfected cells; host or cells: HEK293A
T8 sequence (Q8IZF7 1-708): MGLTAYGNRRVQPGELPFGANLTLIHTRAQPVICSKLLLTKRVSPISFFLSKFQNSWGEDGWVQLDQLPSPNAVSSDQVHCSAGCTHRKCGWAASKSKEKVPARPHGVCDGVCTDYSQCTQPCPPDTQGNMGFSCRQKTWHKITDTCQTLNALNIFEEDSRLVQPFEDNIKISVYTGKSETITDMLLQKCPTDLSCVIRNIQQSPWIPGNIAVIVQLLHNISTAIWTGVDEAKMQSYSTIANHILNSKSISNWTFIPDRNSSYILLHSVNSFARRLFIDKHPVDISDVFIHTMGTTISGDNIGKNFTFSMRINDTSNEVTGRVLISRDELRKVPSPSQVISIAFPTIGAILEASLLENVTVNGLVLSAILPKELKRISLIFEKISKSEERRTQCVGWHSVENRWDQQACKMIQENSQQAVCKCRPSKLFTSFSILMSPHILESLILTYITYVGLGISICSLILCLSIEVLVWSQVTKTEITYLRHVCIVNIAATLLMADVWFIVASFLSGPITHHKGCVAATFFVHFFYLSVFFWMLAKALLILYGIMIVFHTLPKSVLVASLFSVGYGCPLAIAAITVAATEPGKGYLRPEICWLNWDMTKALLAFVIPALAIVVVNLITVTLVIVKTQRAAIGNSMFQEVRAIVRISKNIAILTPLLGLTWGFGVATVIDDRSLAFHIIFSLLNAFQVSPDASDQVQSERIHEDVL

[10] = GPR20 (G protein-coupled receptor 20), read-out: % GPCR activation compared to TPA
[11] = NMUR2 (neuromedin U receptor 2), read-out: % GPCR activation compared to TPA
[12] = GPR81 (hydroxycarboxylic acid receptor 1), read-out: % GPCR activation compared to TPA
[13] = OPN3 (opsin 3), read-out: % GPCR activation compared to TPA
[14] = GPCR GPR113 (G-protein-coupled receptor 113 (ADGRF3)), read-out: % GPCR activation compared to TPA
[15] = CCR9 (chemokine (C-C motif) receptor 9), read-out: % GPCR activation compared to TPA
[16] = ADRB2 (adrenoceptor beta 2, surface), read-out: % GPCR activation compared to TPA
[17] = GPCR β1 (adrenoceptor beta 1), read-out: % GPCR activation compared to TPA
[18] = GPCR GPR111 (G-protein-coupled receptor 111 (ADGRF2)), read-out: % GPCR activation compared to TPA
[19] = read-out: % GPCR activation compared to TPA, GPR20 (G protein-coupled receptor 20)
[20] = read-out: % GPCR activation compared to TPA, NMUR2 (neuromedin U receptor 2)
[21] = read-out: % GPCR activation compared to TPA, GPR81 (hydroxycarboxylic acid receptor 1)
[22] = read-out: % GPCR activation compared to TPA, OPN3 (opsin 3)
[23] = read-out: % GPCR activation compared to TPA, GPCR GPR113 (G-protein-coupled receptor 113 (ADGRF3))
[24] = read-out: % GPCR activation compared to TPA, CCR9 (chemokine (C-C motif) receptor 9)
[25] = read-out: % GPCR activation compared to TPA, ADRB2 (adrenoceptor beta 2, surface)
[26] = read-out: % GPCR activation compared to TPA, GPCR β1 (adrenoceptor beta 1)
[27] = read-out: % GPCR activation compared to TPA, GPCR GPR111 (G-protein-coupled receptor 111 (ADGRF2))

T3 sequence (Q9BXC0 whole entry): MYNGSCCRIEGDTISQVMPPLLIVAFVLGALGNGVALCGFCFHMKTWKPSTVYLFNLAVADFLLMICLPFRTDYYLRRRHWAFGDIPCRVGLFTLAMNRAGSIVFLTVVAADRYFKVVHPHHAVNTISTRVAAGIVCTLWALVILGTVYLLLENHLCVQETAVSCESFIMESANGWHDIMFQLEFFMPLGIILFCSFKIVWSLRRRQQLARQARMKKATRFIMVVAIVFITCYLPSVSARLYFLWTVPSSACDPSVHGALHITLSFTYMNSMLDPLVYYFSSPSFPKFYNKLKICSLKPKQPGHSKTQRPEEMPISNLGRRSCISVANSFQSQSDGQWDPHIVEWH
T1 sequence (Q99678 whole entry): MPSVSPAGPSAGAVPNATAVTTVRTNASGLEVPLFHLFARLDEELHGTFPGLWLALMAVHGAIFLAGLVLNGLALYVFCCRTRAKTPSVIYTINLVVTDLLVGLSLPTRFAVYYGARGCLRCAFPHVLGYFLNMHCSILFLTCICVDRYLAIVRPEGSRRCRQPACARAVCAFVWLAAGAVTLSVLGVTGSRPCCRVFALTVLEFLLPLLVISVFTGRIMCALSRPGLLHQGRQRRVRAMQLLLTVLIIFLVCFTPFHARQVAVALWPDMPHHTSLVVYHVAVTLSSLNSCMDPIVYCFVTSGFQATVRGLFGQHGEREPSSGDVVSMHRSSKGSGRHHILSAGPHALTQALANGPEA
Chain of 348 GPCRs (Homo sapiens, UniProt P07550) (P07550 whole entry): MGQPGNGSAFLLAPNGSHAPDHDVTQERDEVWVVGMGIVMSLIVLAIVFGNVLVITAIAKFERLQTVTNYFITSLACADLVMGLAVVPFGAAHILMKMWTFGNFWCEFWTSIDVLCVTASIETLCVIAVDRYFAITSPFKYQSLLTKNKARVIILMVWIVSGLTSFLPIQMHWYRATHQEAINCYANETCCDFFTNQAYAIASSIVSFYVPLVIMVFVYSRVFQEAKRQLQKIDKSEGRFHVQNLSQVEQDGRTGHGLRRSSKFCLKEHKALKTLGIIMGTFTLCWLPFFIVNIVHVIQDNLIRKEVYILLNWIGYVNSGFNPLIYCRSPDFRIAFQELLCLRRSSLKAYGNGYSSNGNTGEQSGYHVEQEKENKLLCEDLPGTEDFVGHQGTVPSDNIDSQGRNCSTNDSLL
T7 sequence (P08588 whole entry): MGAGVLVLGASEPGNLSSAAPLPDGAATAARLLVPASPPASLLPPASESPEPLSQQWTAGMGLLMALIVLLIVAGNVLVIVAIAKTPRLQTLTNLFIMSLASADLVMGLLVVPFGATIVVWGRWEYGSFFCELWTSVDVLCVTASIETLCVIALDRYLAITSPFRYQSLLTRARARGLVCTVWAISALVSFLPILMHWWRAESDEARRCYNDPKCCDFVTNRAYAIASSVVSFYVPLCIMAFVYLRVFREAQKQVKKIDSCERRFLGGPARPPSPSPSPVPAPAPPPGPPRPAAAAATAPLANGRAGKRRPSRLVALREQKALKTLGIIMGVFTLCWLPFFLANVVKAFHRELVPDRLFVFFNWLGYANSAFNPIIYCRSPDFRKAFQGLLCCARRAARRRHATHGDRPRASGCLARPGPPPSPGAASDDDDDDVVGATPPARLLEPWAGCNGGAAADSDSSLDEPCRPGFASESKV
T2 sequence (Q9GZQ4 whole entry): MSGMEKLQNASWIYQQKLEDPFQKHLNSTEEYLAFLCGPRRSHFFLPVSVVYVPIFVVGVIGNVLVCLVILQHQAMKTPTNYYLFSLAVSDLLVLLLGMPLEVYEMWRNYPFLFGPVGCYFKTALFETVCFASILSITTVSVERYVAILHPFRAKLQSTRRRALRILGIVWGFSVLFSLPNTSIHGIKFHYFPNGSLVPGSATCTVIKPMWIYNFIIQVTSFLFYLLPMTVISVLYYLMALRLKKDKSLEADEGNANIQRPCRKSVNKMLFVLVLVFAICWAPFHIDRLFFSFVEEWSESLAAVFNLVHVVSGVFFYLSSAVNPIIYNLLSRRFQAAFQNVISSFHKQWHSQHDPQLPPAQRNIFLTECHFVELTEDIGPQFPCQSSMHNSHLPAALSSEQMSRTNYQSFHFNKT
T4 sequence (Q9H1Y3 whole entry): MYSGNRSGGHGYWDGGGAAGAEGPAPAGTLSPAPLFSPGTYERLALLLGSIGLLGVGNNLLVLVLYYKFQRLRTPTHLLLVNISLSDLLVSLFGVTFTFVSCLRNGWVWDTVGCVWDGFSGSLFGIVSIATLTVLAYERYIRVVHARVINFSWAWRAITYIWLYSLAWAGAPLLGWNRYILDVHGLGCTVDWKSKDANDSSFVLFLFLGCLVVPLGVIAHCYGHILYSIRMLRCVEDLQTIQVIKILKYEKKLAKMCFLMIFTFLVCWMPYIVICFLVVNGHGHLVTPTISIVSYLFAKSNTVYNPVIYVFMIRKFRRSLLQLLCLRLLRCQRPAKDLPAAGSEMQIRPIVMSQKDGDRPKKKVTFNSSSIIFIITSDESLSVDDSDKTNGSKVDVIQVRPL

Structure (SMILES) | activation at 100 µM (348 GPCRs [1]; [10]) | activation at 10 µM (348 GPCRs [2]; [11]) | activation at 100 µM (348 GPCRs [3]; [12]) | activation at 100 µM (348 GPCRs [4]; [13]) | activation at 10 µM (348 GPCRs [5]; [14]) | activation at 10 µM (348 GPCRs [6]; [15]) | activation at 10 µM (348 GPCRs [7]; [16]) | activation at 10 µM (348 GPCRs [8]; [17]) | activation at 10 µM (348 GPCRs [9]; [18]) | activation at 100 µM (348 GPCRs [1]; [19]) | activation at 10 µM (348 GPCRs [2]; [20]) | activation at 100 µM (348 GPCRs [3]; [21]) | activation at 100 µM (348 GPCRs [4]; [22]) | activation at 10 µM (348 GPCRs [5]; [23]) | activation at 10 µM (348 GPCRs [6]; [24]) | activation at 10 µM (348 GPCRs [7]; [25]) | activation at 10 µM (348 GPCRs [8]; [26]) | activation at 10 µM (348 GPCRs [9]; [27]) | other results
N#C[C@@]1(c2ccc3c(N)ncnn23)O[C@H](CO)[C@@H](O)[C@H]1O [GS441524] | 7.2% | 2.73% | 1.05% | -0.281% | -1.08% | 2.4% | -0.409% | -0.381% | -2.52% | – | – | – | – | – | – | – | – | – | –
CCC(CC)COC(=O)[C@H](C)N[P@](=O)(OC[C@H]1O[C@@](C#N)(c2ccc3c(N)ncnn23)[C@H](O)[C@@H]1O)Oc1ccccc1 [remdesivir] | – | – | – | – | – | – | – | – | – | 8.9% | 0.527% | 2.29% | -0.473% | 0.66% | -0.902% | 1.06% | 1.07% | -1.09% | –
CC(C)OC(=O)[C@H](C)N[P@](=O)(OC[C@H]1O[C@@H](n2ccc(=O)[nH]c2=O)[C@](C)(F)[C@@H]1O)Oc1ccccc1 [sofosbuvir] | – | – | – | – | – | – | – | – | – | -2.45% | -4.3% | -7.92% | 0.266% | 0.111% | -0.977% | 1.76% | 1.27% | -0.382% | –
NC(=O)c1nc(F)cnc1O [favipiravir, 6-fluoro-3-hydroxy-2-pyrazinecarboxamide] | 3.63% | -2.41% | 0.102% | -0.343% | – | 2.47% | -1% | – | – | – | – | – | – | – | – | – | – | – | activation at 100 µM (348 GPCRs [5]; GPCR GPR113 (G-protein-coupled receptor 113 (ADGRF3)), 100μM, read-out: % GPCR activation compared to TPA): -1.12%; activation at 100 µM (348 GPCRs [8]; GPCR β1 (adrenoceptor beta 1), 100μM, read-out: % GPCR activation compared to TPA): -1.4%; activation at 100 µM (348 GPCRs [9]; GPCR GPR111 (G-protein-coupled receptor 111 (ADGRF2)), 100μM, read-out: % GPCR activation compared to TPA): -1.94%
CC(C)C(=O)OC[C@H]1O[C@@H](n2ccc(NO)nc2=O)[C@H](O)[C@@H]1O [molnupiravir] | -0.078% | -2.66% | 0.933% | -0.438% | -1.49% | -1.34% | 0.263% | 0.738% | 0.307% | – | – | – | – | – | – | – | – | – | –
